Tested on: Eimeria acervulina, Eimeria maxima, and Eimeria tenella
Test: Second study: floor-pen broilers, cocci-challenge plus built-up litter, dried bacterial biomass in feed, 28 days
Assay type: in vivo, broiler chickens
Details: column F of the chart

Structure (SMILES): CC[C@@]1([C@@H]2O[C@@H]([C@H]3O[C@@](O)(CO)[C@H](C)C[C@@H]3C)C[C@@H]2C)CC[C@H]([C@]2(C)CC[C@]3(C[C@H](O)[C@@H](C)[C@@H]([C@@H](C)[C@@H](OC)[C@H](C)C(=O)O)O3)O2)O1 [Coban, Monensin]
- Lesion Score Ileum Day 28: 0.325
